Measurements published in patent publication US20070155771A1, “Methods and means for treating protein conformational disorders” (priority 2003, published 2007).

Experiments:
[1] = test system: human A30P α-synuclein; assay: α-Synuclein degradation in inducible PC12 cell lines (western blot), A30P; type: cell-based, rat; settings: 10 mM 3MA, 200 nM bafilomycin A1; for α-synuclein levels, mitotic A30P lines: 48 hours; for fold increase in α-synuclein levels (densitometry as a function of tubulin) vs control cells, A30P: +/− SE, significant
Description: (§1) Human α-synuclein with a HA tag at the N-terminus and a 6His tag at the C-terminus was amplified from pHM6α-synuclein constructs (Furlong, R. A. et a; 1 (2000) Biochem. J. 346, 577581) and inserted into pTRE2 hyg vector (Clontech) using Nhe I/Sal I sites. Constructs were confirmed by sequencing before use. The pTRE2 hygα-synuclein construct and pTettTS (Clontech) were cotransfected into PC12 TetOn cells (Clontech), using Lipofectamine (Invitrogen) and Plus Reagent (Invitrogen). Single colonies were isolated using cloning cylinders (Sigma) and cells were grown and tested for α-synuclein expression upon induction. Cell lines were subjected to a further round of purification from single colonies to ensure that lines were pure.
(§2) PC12 cells were grown in Dulbecco's modified eagle's medium (DMEM, Sigma) supplemented with 10% horse serum (Sigma), 5% fetal bovine serum (Sigma), 100 U/ml penicillin/streptomycin, 2 mM L-glutamine, […] G418 (Invitrogen) and […] hygromycin B (Calbiochem) at 37° C., 10% CO2. To induce differentiation, cells were grown in media containing 1% horse serum and 100 ng/ml nerve growth factor (2.5S, Upstate Biotechnology) and incubated for about 5 days. Cells were induced to express synuclein with […] doxycycline (Sigma).
(§3) Cells were induced for 24 hours and then washed twice with media to remove doxycycline. Then cells were incubated in […] media containing either 10 mM 3-methyladenine (3MA, Sigma), 200 nM bafilomycin A1 (Sigma), […] rapamycin (Sigma), […] lactacystin (Sigma), […] epoxomicin (Affinity Research Products Ltd) or carrier controls (water or DMSO (Sigma)). 3MA and lactacystin were made up in water and rapamycin, epoxomicin and bafilomycin were dissolved in DMSO.
(§4) After 24 hours the media was replaced with fresh media plus drug and after a further 24 hours cell pellets were collected and stored at −80° C. until required.
(§5) Cell pellets were collected and stored at −80° C. until needed. Cells were lysed on ice in lysis buffer: 1% TritonX100, 20 mM TRIS pH7.5, 137 mM NaCl, 1 mM EGTA, 10% glycerol, 1.5 mM MgCl2 and protease inhibitor cocktail (Complete, Roche). […]
(§6) Each lane was loaded with protein from a similar number of cells, based on cell counting at the time of seeding. Proteins were transferred onto Hybond ECL nitrocellulose membrane (Amersham). α-Synuclein was detected with an antiHA monoclonal antibody (Covance) at 1:1000 dilution with 4-18 hours incubation. HRP conjugated antimouse antibody (Amersham) at 1:2000 dilution was then added to blots and antibody was detected using ECL blotting reagents (Amersham) and Hyperfilm ECL (Amersham). […]

[2] = test system: human A53T α-synuclein; assay: α-Synuclein degradation in inducible PC12 cell lines (western blot), A53T; type: cell-based, rat; settings: 10 mM 3MA, 200 nM bafilomycin A1; 48 hours
Description: as §1, with “pure. […]” for “pure.”
as §6

[3] = test system: human wild-type α-synuclein; assay: α-Synuclein degradation in inducible PC12 cell lines (western blot), wildtype; type: cell-based, rat; settings: 10 mM 3MA, 200 nM bafilomycin A1; for α-synuclein levels, mitotic wildtype lines: 48 hours; for fold increase in α-synuclein levels (densitometry as a function of tubulin) vs control cells, wildtype: +/− SE, did not reach significance
Description: as §1, §2, §3, §4, §5, §6

[4] = test system: human wild-type, A30P and A53T α-synuclein; assay: α-Synuclein degradation in inducible PC12 cell lines (western blot), all forms; type: cell-based; settings: for α-synuclein levels: induced 24 hours, doxycycline removed, drug 48 hours, cycling and differentiated cells, 0.2 mg/ml rapamycin, 10 mM lactacystin, 10 mM epoxomicin [sic]
Description: as §1, §2, §3, §4
Cell pellets were collected and stored at −80° C. until needed. Cells were lysed on ice in lysis buffer: 1% TritonX100, 20 mM TRIS pH7.5, 137 mM NaCl, 1 mM EGTA, 10% glycerol, 1.5 mM MgCl2 and protease inhibitor cocktail (Complete, Roche).
Samples were then mixed with loading buffer: 62.5 mM TRIS pH 6.8, 2% SDS, 10% glycerol, 0.05% bromophenol blue, 100 mM dithiothreitol and 700 mM β-mercaptoethanol and boiled before loading onto 14% denaturing polyacrylamide gels.
Each lane was loaded with protein from a similar number of cells, based on cell counting at the time of seeding. Proteins were transferred onto Hybond ECL nitrocellulose membrane (Amersham). α-Synuclein was detected with an antiHA monoclonal antibody (Covance) at 1:1000 dilution with 4-18 hours incubation. HRP conjugated antimouse antibody (Amersham) at 1:2000 dilution was then added to blots and antibody was detected using ECL blotting reagents (Amersham) and Hyperfilm ECL (Amersham). Blots were stripped and then reprobed for α-tubulin (Sigma) at 1:1000 dilution.
PC12 cell lines as described above (i.e. mitotic and neuronally differentiated wild-type, A53T and A30P PC12 lines) were induced for 24 hours, then doxycycline was removed and the drugs were added for 48 hours. The trends we observed were similar in cells treated with drugs for 24 and 72 hours.

[5] = cited from earlier work
[6] = test system: COS-7 cells expressing an exon 1 fragment of the HD gene with 74 glutamines (Q74); assay: Aggregate formation and abnormal cell nuclei in transiently transfected COS-7 cells expressing Q74; type: cell-based, African green monkey; settings: 24 hours post transfection; 0.2 μg/ml rapamycin
[7] = test system: mTOR-dependent TOP-translation; assay: TOP-luciferase reporter assay in PC12 cells stably expressing Q23 or Q74; type: cell-based, rat
Protocol: PC12 cells stably expressing Q23 or Q74 were transfected with a luciferase construct having a 5′ untranslated region from the eEF2 gene containing a terminal oligopyrimidine tract (TOP-luciferase) or without the TOP sequence (Control-luciferase) along with β-galactosidase (to control transfection efficiency). Transfected cells were maintained in serum free medium with doxycycline for 36 hours following which the cells were stimulated with 15% serum with or without rapamycin for 3 h. Cells were then lysed and luciferase assays were performed according to standard protocol. COS-7 cells were co-transfected with Q23 or Q74 with control- or TOP-luciferase along with β-gal and experiments were performed as above. […] Experiments were performed in sextuplicate and repeated several times.
Phosphorylation of the ribosomal protein S6 by S6K1 positively regulates the translation initiation of mRNAs containing 5′-terminal oligopyrimidine tracts (5′-TOP), like mRNAs coding for ribosomal proteins and translation elongation factors. A previously validated luciferase reporter assay was used to measure mTOR-dependent TOP-translation (Kim, J. E. & Chen, J. Proc Natl Acad Sci USA 97, 14340-14345 (2000), Schwab, M. S. et al. Mol Cell Biol 19, 2485-2494 (1999)). Rapamycin is a specific inhibitor of mTOR. Comparison of cells for TOP-dependent translation with this assay in the presence or absence of rapamycin allows assessment of the amount of functional cellular mTOR that can be inhibited by rapamycin. In FIG. 10C, each bar represents the difference between the luciferase activities (corrected for transfection efficiency-see methods) in the presence vs. the absence of rapamycin, for a luciferase reporter with a TOP sequence (+TOP) (FIG. 10A) and otherwise identical control construct without the TOP sequence (−TOP) (FIG. 10B).

Molecule	α-synuclein levels, mitotic A30P lines [1]	fold increase in α-synuclein levels (densitometry as a function of tubulin) vs control cells, A30P [1]	α-synuclein levels in the A53T lines [2]	α-synuclein levels, mitotic wildtype lines [3]	fold increase in α-synuclein levels (densitometry as a function of tubulin) vs control cells, wildtype [3]	α-synuclein levels [4]	cell death or overt aggregate formation ([4]; proteasome inhibitors for 48 hours)	water solubility [5]	cell death in Q74-expressing cells [6]	proportions of cells with Q74 aggregates [6]	inhibition of TOP-dependent (+TOP) expression of luciferase ([7]; Q23-expressing PC12 cells, after serum stimulation, 3 h)	luciferase activity, control-luciferase construct without the TOP sequence (−TOP) ([7]; Q23 cells)	inhibition of TOP-dependent (+TOP) expression of luciferase ([7]; Q74-expressing PC12 cells)
CO/C1=C\C(C)=C\[C@@H](C)[C@@H](O)[C@@H](C)C/C(C)=C/C=C/[C@H](OC)[C@@H]([C@@H](C)[C@@H](O)[C@H](C)[C@@]2(O)C[C@@H](O)[C@H](C)[C@@H](C(C)C)O2)OC1=O [BafA1, Bafilomycin A1]	slight changes, at best	1.19 fold	obvious increase	slight changes, at best	1.12 fold	–	–	–	–	–	–	–	–
CC[C@H](C)[C@H](NC(=O)[C@H]([C@@H](C)CC)N(C)C(C)=O)C(=O)N[C@H](C(=O)N[C@@H](CC(C)C)C(=O)[C@@]1(C)CO1)[C@@H](C)O [epoxomicin]	–	–	–	–	–	increase	did not cause increased cell death or overt aggregate formation	–	–	–	–	–	–
rapamycin	–	–	–	–	–	significantly reduce	–	poor	reduced	reduced	about 18%	no inhibitory effect	no such inhibitory effect
Cn1cnc(N)c2ncnc1-2 [3-MA, 3-methyl adenine]	slight changes, at best	1.13 fold	obvious increase	slight changes, at best	1.48 fold	–	–	–	–	–	–	–	–
